Source: patent publication US11192888B2, “Antibacterial compounds” (priority 2017, dated 2021)
Converted amounts (≈) assume the structure as drawn. Like-named read-outs stand apart in the source and are kept apart here. *1 amine or outer side, *2 acyl side, *3 side chain or, on linkers, in order; H or OH if unused. Where a SMILES comes first, the peptide text is derived from it. [ ]: non-standard residue; d: D form. dAla(ψthiazole) = C[C@@H](N[*:1])c1nc(C(=O)[*:2])cs1; Trp(4-Br) = N[C@@H](Cc1c[nH]c2cccc(Br)c12)C(=O)O; Trp(4-Cl) = N[C@@H](Cc1c[nH]c2cccc(Cl)c12)C(=O)O; Dha = C=C(N)C(=O)O; Sar = CNCC(=O)O

Key:
[1] = tested on: Clostridium difficile 630Δerm; conditions: 13 h
[2] = tested on: Strep. agalactiae; conditions: 13 h
[3] = tested on: Strep. pyogenes; conditions: 13 h
[4] = tested on: P. aeruginosa PAO1; conditions: PAO1, 13 h
[5] = tested on: B. multivorans ATCC17616; conditions: for IC50: ATCC17616, 25 h
[6] = tested on: clinical isolates and one wild-type strain of P. aeruginosa; assay: Growth of P. aeruginosa clinical isolates and wild-type strain with compounds (FIG. 1); format: cell-based, Pseudomonas aeruginosa; conditions: isolates W4, W14, W23, W46 and PAO1; MH media, 13 hours (FIG. 1)
Procedure: FIGS. 1a and 1b are graphs showing the effects of varying concentrations of compounds 2 and 3 according to the invention on the growth of different strains of P. aeruginosa in Müller-Hinton (MH) media, after 13 hours.
The antibacterial activity of compounds 2 and 3 were tested against clinical isolates and one wild-type strain of P. aeruginosa displaying varying antibiotic sensitivity.
The antibacterial activity of compounds 2 and 3 were tested against these clinical isolates and one wild-type strain of P. aeruginosa.

[7] = tested on: C. difficile ATCC 43255 (aka VPI 10463; ribotype 087); assay: Mouse model of C. difficile-associated disease; format: in vivo, C57BL/6 mice
[8] = tested on: Clostridium difficile strains (21 clinical, 7 reference); assay: microbe, parasite or virus in culture; conditions: Clostridioides difficile
[9] = tested on: Enterococcus faecalis ATCC 29212; assay: microbe, parasite or virus in culture; conditions: ATCC29212
[10] = tested on: Corynebacterium striatium NCTC 764; assay: microbe, parasite or virus in culture; conditions: NCTC764
[11] = tested on: Corynebacterium urealyticum NCTC 12011; assay: microbe, parasite or virus in culture; conditions: NCTC12011
[12] = tested on: Lactobacillus rhamnosus ATCC 53103; assay: microbe, parasite or virus in culture; conditions: Lacticaseibacillus rhamnosus, ATCC53103
[13] = tested on: Staphylococcus aureus ATCC 29213; assay: microbe, parasite or virus in culture; conditions: ATCC29213
[14] = tested on: Corynebacterium jeikeium NCTC 11914; assay: microbe, parasite or virus in culture; conditions: NCTC11914
[15] = tested on: Enterococcus faecium NCTC 12204; assay: microbe, parasite or virus in culture; conditions: NCTC12204
[16] = tested on: Clostridium difficile strains (21 clinical, 7 reference)
[17] = Procedure: In this study, a single oral dose of compound 3 in 0.5% w/v aqueous methylcellulose at 5 mg/kg was administered to nine mice in a 10 mL/kg dosing volume and housed in metabolism cages. Following administration of the compound, serial blood samples of 50 μL was taken from the lateral tail vein at each of 7 post-dosing time-points (0.25, 0.5, 1, 2, 4, 7 and 24 h). Whole blood samples were then diluted 1:1 with water and two 40 μL aliquots were pipetted into duplicate 96 well plate tubes. At the end of 24 h, all faecal samples were collected and pooled. A quantitative bioanalysis by LC-MS/MS of the blood and faecal levels of compound 3 was carried out to determine the oral absorbability and gastrointestinal metabolic stability of compound 3.
To evaluate the metabolic stability of orally administered compound 3, metabolite profiling of the faecal sample was performed.

[18] = tested on: Clostridium perfringens NCTC 8237
[19] = tested on: Bifidobacterium breve ATCC 15700
[20] = tested on: Enterobacter cloacae NCTC 13406
[21] = tested on: Pseudomonas aeruginosa NCTC 13437
[22] = tested on: Corynebacterium jeikeium NCTC 11914
[23] = tested on: Lactobacillus rhamnosus ATCC 53103
[24] = tested on: Propionibacterium acnes ATCC 6919
[25] = tested on: Proteus mirabilis DSM 30116
[26] = tested on: Clostridium difficile ATCC 43255; assay: CLSI MIC, representative gut bacteria; format: cell-based; conditions: Clostridium difficile ATCC 43255
Procedure: (§1) Comparative in vitro bacterial susceptibility to compounds 3, 9 and 10, vancomycin and metronidazole was determined using methods according to the Clinical and Laboratory Standard Institute (CLSI) approved guidelines (M7-A10, M11-A7 or M45-A2) for anaerobic and aerobic organisms.

[27] = tested on: Clostridium sordellii ATCC 9714; assay: CLSI MIC, representative gut bacteria; format: cell-based
Procedure: as §1

[28] = tested on: Pseudomonas aeruginosa ATCC 27853
[29] = tested on: Clostridium ramosum DSM 1402
[30] = tested on: B. cepasia ATCC25416; assay: Growth of Burkholderia with compound (FIG. 3), B. cepasia; format: cell-based; conditions: FIG. 3, LB broth, 17 hours
Procedure: (§2) FIG. 3 is a graph showing the effect of varying concentrations of compound 3 according to the invention on the growth of Burkholderia in Lysogeny broth (LB broth) after 17 hours.
(§3) Compound 3 was tested to determine its antibacterial activity against B. multivorans, B. cepasia and B. vietnamiensis.

[31] = tested on: Citrobacter koseri Clinical
[32] = tested on: Enterococcus faecalis ATCC 29212
[33] = tested on: Bifidobacterium bifidum ATCC 11863
[34] = tested on: Enterococcus faecium NCTC 12204
[35] = tested on: Staphylococcus aureus ATCC 29213
[36] = tested on: Clostridium innocuum DSM 1286
[37] = tested on: Escherichia coli ATCC 25922
[38] = tested on: Bacteroides fragilis ATCC 25285; conditions: ATCC 25285
[39] = tested on: Corynebacterium striatium NCTC 764
[40] = tested on: Actinomyces viscosus DSM 43327
[41] = tested on: Corynebacterium urealyticum NCTC 12011
[42] = tested on: B. vietnamiensis J2863; assay: Growth of Burkholderia with compound (FIG. 3), B. vietnamiensis; format: cell-based; conditions: FIG. 3, LB broth, 17 hours
Procedure: as §2, §3

## C=C1NC(=O)[C@@H](C)NC(=O)CNC(=O)[C@H](Cc2c[nH]c3cccc(Cl)c23)NC(=O)[C@H](Cc2c[nH]c3ccccc23)NC(=O)c2csc(n2)[C@@H](C)NC(=O)CN(C)C1=O [Compound 2, Cyclo[D-Ala-Thz-Trp-Trp(4-Cl)-Gly-D-Ala-Dha-Sar]] (cyclo([Dha][Sar][dAla(ψthiazole)]W[Trp(4-Cl)]G[dA]))
[1]
  IC50: 180 ± 30 nM
[2]
  IC50: > 100 µM
[3]
  IC50: > 100 µM
[4]
  IC50: 16.8 ± 2.9 µM
  % Growth inhibition at 100 μM: 87.0 ± 1.0%
[5]
  IC50: 2900 ± 2500 nM
[6]
  susceptibility of the isolates to the compound: equally susceptible

## CN[C@H](CC(C)C)C(=O)N[C@H]1C(=O)N[C@@H](CC(N)=O)C(=O)N[C@H]2C(=O)N[C@H]3C(=O)N[C@H](C(=O)N[C@H](C(=O)O)c4cc(O)cc(O)c4-c4cc3ccc4O)[C@H](O)c3ccc(c(Cl)c3)Oc3cc2cc(c3O[C@@H]2O[C@H](CO)[C@@H](O)[C@H](O)[C@H]2O[C@H]2C[C@](C)(N)[C@H](O)[C@H](C)O2)Oc2ccc(cc2Cl)[C@H]1O [Vancomycin, reference compound]
[7]; 10 mg/kg
  survival to the end of the study at day-21 post-infection: survived to the end of the study
[7]; 10 mg/kg oral BD for 5 days
  Mean survival: 504.00 h
[8]
  MIC: 0.5 µg/mL (≈ 0.345 µM)
  MIC50: 0.5 µg/mL (≈ 0.345 µM)
  MIC90: 0.5 µg/mL (≈ 0.345 µM)
[8]; ATCC9689
  MIC: 0.5 µg/mL (≈ 0.345 µM)
[8]; ATCC13366
  MIC: 0.5 µg/mL (≈ 0.345 µM)
[8]; ATCC43255
  MIC: 0.5 µg/mL (≈ 0.345 µM)
[8]; ATCC700057
  MIC: 0.5 µg/mL (≈ 0.345 µM)
[8]; BAA1875
  MIC: 0.5 µg/mL (≈ 0.345 µM)
[8]; read-out: MIC40
  MIC: 0.5 µg/mL (≈ 0.345 µM)
[9]
  MIC: 2 µg/mL (≈ 1.38 µM)
[10]
  MIC: 0.5 µg/mL (≈ 0.345 µM)
[11]
  MIC: 1 µg/mL (≈ 0.69 µM)
[12]
  MIC: > 64 µg/mL
[13]
  MIC: 1 µg/mL (≈ 0.69 µM)
[14]
  MIC: 1 µg/mL (≈ 0.69 µM)
[15]
  MIC: > 64 µg/mL
[16]; 28 C. difficile strains
  MIC50: 0.5 µg/mL (≈ 0.345 µM)
  MIC90: 0.5 µg/mL (≈ 0.345 µM)
[16]; C. difficile strain 630 (ribotype 012)
  MIC: 0.5 µg/mL (≈ 0.345 µM)
[16]; C. difficile strain BI1-FDX^R
  MIC: 0.5 µg/mL (≈ 0.345 µM)
[16]; C. difficile strain Clin. 1
  MIC: 0.5 µg/mL (≈ 0.345 µM)
[16]; C. difficile strain Clin. 2
  MIC: 0.5 µg/mL (≈ 0.345 µM)
[16]; C. difficile strain Clin. 3
  MIC: 0.5 µg/mL (≈ 0.345 µM)
[16]; C. difficile strain Clin. 6
  MIC: 0.5 µg/mL (≈ 0.345 µM)
[16]; C. difficile strain Clin. 7
  MIC: 0.5 µg/mL (≈ 0.345 µM)
[16]; C. difficile strain Clin. 8
  MIC: 0.5 µg/mL (≈ 0.345 µM)
[16]; C. difficile strain Clin. 9
  MIC: 0.5 µg/mL (≈ 0.345 µM)
[16]; C. difficile strain Clin. 10
  MIC: 0.5 µg/mL (≈ 0.345 µM)
[16]; C. difficile strain Clin. 11
  MIC: 0.5 µg/mL (≈ 0.345 µM)
[16]; C. difficile strain Clin. 12
  MIC: 0.5 µg/mL (≈ 0.345 µM)
[16]; C. difficile strain Clin. 13
  MIC: 0.5 µg/mL (≈ 0.345 µM)
[16]; C. difficile strain Clin. 14
  MIC: 0.5 µg/mL (≈ 0.345 µM)
[16]; C. difficile strain Clin. 15
  MIC: 0.5 µg/mL (≈ 0.345 µM)
[16]; C. difficile strain Clin. 16
  MIC: 0.5 µg/mL (≈ 0.345 µM)
[16]; C. difficile strain Clin. 18
  MIC: 0.5 µg/mL (≈ 0.345 µM)
[16]; C. difficile strain Clin. 20
  MIC: 0.5 µg/mL (≈ 0.345 µM)
[16]; C. difficile strain Clin. 21
  MIC: 0.5 µg/mL (≈ 0.345 µM)
[16]; C. difficile strain Clin. 22
  MIC: 0.5 µg/mL (≈ 0.345 µM)
[16]; C. difficile strain Clin. 23
  MIC: 0.5 µg/mL (≈ 0.345 µM)
[16]; C. difficile strain Clin. 24
  MIC: 0.5 µg/mL (≈ 0.345 µM)

## C=C1NC(=O)[C@@H](C)NC(=O)CNC(=O)[C@H](Cc2c[nH]c3cccc(Br)c23)NC(=O)[C@H](Cc2c[nH]c3ccccc23)NC(=O)c2csc(n2)[C@@H](C)NC(=O)CN(C)C1=O [Compound 3, Cyclo[D-Ala-Thz-Trp-Trp(4-Br)-Gly-D-Ala-Dha-Sar]] (cyclo([Dha][Sar][dAla(ψthiazole)]W[Trp(4-Br)]G[dA]))
[17]; LC-MS metabolite profiling, above control sample
  share of the mass of compounds detected in pooled faecal sample that corresponds to the compound: 85%
[17]; oral 5 mg/kg, mice, 24 h
  compound recovered from pooled faeces: 63%
[17]; single oral dose 5 mg/kg, mice, over 24 h
  systemic exposure (blood): undetectable
[18]
  MIC: >64 µg/mL
[1]
  IC50: 130 ± 20 nM
[19]
  MIC: >64 µg/mL
[20]
  MIC: >64 µg/mL
[21]
  MIC: >64 µg/mL
[22]
  MIC: >64 µg/mL
[23]
  MIC: >64 µg/mL
[24]
  MIC: >64 µg/mL
[25]
  MIC: >64 µg/mL
[2]
  IC50: > 100 µM
[26]
  MIC: 1.0 µg/mL (≈ 1.14 µM)
[27]
  MIC: 32 µg/mL (≈ 36.6 µM)
[28]
  MIC: >64 µg/mL
[29]
  MIC: >64 µg/mL
[30]
  antibacterial activity (growth decrease): highly active
[31]
  MIC: >64 µg/mL
[32]
  MIC: >64 µg/mL
[33]
  MIC: >64 µg/mL
[3]
  IC50: > 100 µM
[34]
  MIC: >64 µg/mL
[35]
  MIC: >64 µg/mL
[36]
  MIC: >64 µg/mL
[37]
  MIC: >64 µg/mL
[38]
  MIC: >64 µg/mL
[39]
  MIC: >64 µg/mL
[40]
  MIC: 64 µg/mL (≈ 73.2 µM)
[41]
  MIC: >64 µg/mL
[42]
  antibacterial activity (growth decrease): highly active
[4]
  IC50: 13.2 ± 3.2 µM
  % Growth inhibition at 100 μM: 85.7 ± 0.6%
[5]
  IC50: 1600 ± 1400 nM
[5]; FIG. 3, LB broth, 17 hours
  antibacterial activity (growth decrease): highly active
[6]
  susceptibility of the isolates to the compound: equally susceptible
